This is an account of results in ChEMBL document CHEMBL5137052, “Identification of dihydroquinolizinone derivatives with cyclic ether moieties as new anti-HBV agents” (Eur J Med Chem, 2022).

The EC50 is the concentration that produces a half-maximal response. What is called IC50 is the concentration at which inhibition is half-maximal. The term CC50 denotes the concentration that lowers cell viability or growth by half. Usually AUC(0-t) stands for exposure summed from dosing to a finite time, without extrapolation to infinity. A higher AUC(0-t) goes with high exposure. The MRT last is the average time that molecules of a dose stay in the body. In general, Tmax refers to the time at which the peak concentration occurs. Broadly, the Cmax is the highest concentration seen after dosing.

The test system of series [1] is Hepatitis B virus. Kind of series: Antiviral activity against HBV infected in human HepG2.2.15 cells assessed as reduction in HBsAg level in cellular supernatant by luminescence based microplate reader analysis. The class given is functional, organism-based.
Series [2] relates to Hepatitis B virus. The series is described as follows: Antiviral activity against HBV infected in human HepG2.2.15 cells assessed as reduction in HBeAg level in cellular supernatant by luminescence based microplate reader analysis. The series is classed as functional, organism-based.
For series [3], the system named is Hepatitis B virus. The series is described as follows: Antiviral activity against HBV infected in human HepG2.2.15 cells assessed as reduction in intracellular core HBV DNA level incubated for 6 days by qPCR analysis. The series is classed as functional, organism-based. As to conditions: HepG2.2.15, 144 h. A general note: In qPCR the cycle at which signal appears reflects the starting amount.

Series [4] is described as follows: Neurotoxicity against NGF induced rat PC-12 cells assessed as morphological changes by measuring appearance of round cells with disappearance of neurites at 10 uM incubated for 48 hrs by phase contrast microscopic analysis. The class given is toxicity, cell-based. To be noted: pc-12, 48 h.
Series [5] can be described thus: Neurotoxicity against NGF induced rat PC-12 cells assessed as morphological changes by measuring appearance of shrunken cells with disappearance of neurites at 10 uM incubated for 48 hrs by phase contrast microscopic analysis. The series is classed as toxicity, cell-based. To be noted: pc-12, 48 h.
Series [6] can be described thus: Neurotoxicity against NGF induced rat PC-12 cells assessed as morphological changes by measuring appearance of clear neurites at 10 uM incubated for 48 hrs by phase contrast microscopic analysis. The series is classed as toxicity, cell-based. To be noted: pc-12, 48 h.
Series [7] in a line: Cytotoxicity against human HepG2.2.15 cells assessed as reduction in cell viability incubated for 6 days by CCK-8 assay. The series is classed as toxicity, cell-based, HepG2 2.2.15. To be noted: time 6 day. On the technique in general: Formazan colour is commonly taken as a measure of viable cells.
Series [8] in a line: AUC (0 to t) in BALB/c mouse at 10 mg/kg, po measured up to 24 hrs by HPLC analysis. The series is classed as ADME, organism-based. More on the design: dose 10 mg/kg, time < 24 hrs, route po. As to conditions: in vivo.
Series [9] in a line: MRT (0 to t) in BALB/c mouse at 10 mg/kg, po measured up to 24 hrs by HPLC analysis. The class given is ADME, organism-based. As to conditions: in vivo.
Series [10] in a line: Elimination half life in BALB/c mouse at 10 mg/kg, po measured up to 24 hrs by HPLC analysis. As to conditions: in vivo, read-out: beta t1/2 (converted). The class given is ADME, organism-based.
Series [11] in a line: Tmax in BALB/c mouse at 10 mg/kg, po measured up to 24 hrs by HPLC analysis. The class given is ADME, organism-based. To be noted: in vivo.
Series [12] is described as follows: Cmax in BALB/c mouse at 10 mg/kg, po measured up to 24 hrs by HPLC analysis. To be noted: in vivo. The series is classed as ADME, organism-based. More on the design: dose 10 mg/kg, time < 24 hrs, route po.

Some results are limits rather than exact numbers.

On to `COc1cc2c(cc1OCc1ccc3c(c1)OCO3)C[C@@H](C(C)C)n1cc(C(=O)O)c(=O)cc1-2`, for which the concentration giving a half-maximal response (EC50) in the series on Hepatitis B virus [1] came to 0.8 nM; in the series on Hepatitis B virus [2], 191 nM; with Hepatitis B virus [3], 1.9 nM. Also, the Activity entry in series [4] and in series [5] was “Toxic” in each case.
Take `COc1cc2c(cc1OC[C@@H]1CCCO1)C[C@@H](C(C)C)n1cc(C(=O)O)c(=O)cc1-2`: the EC50 in the series on Hepatitis B virus [1] was determined as 1.6 nM; with Hepatitis B virus [2], 4.6 nM; in the series with Hepatitis B virus [3], 0.6 nM. The Activity result in series [6] was “Non-Toxic”.
In the case of `COCCCOc1cc2c(cc1OC)-c1cc(=O)c(C(=O)O)cn1C(C(C)C)C2` (racemic), the EC50 with Hepatitis B virus [1] came to 1 nM; in the series with Hepatitis B virus [2], 18.2 nM; in the series with Hepatitis B virus [3], 1 nM. Also, the results for the IC50 in the series with Hepatitis B virus [1], in the series on Hepatitis B virus [2] and with Hepatitis B virus [3] were 5.1 nM, 91.2 nM and 86.3 nM, respectively. Also, in [7], the 50% cytotoxic concentration (CC50) at 144 h was over 50000 nM. For the same compound, in series [8], the AUC(0-t) at 24 h turned out to be 17.2 µM·h. The compound also yielded an MRT last at 24 h in series [9] of 67.8 min. Moreover, in [10], the half-life was 51 min. Further, the Tmax in series [11] came to 11.4 min. In addition, the highest concentration (Cmax) in series [12] was found to be 11.6 µM. In addition, the Activity entry in series [4] and in series [5] was “Toxic” in each case.
